Experimental data taken from patent US7999101B2, “Cationic lipids for the transfection of nucleic acids” (Politecnico Di Milano, priority 2005, dated 2011).

Legend:
Type in all cases: cell-based
[1] = system: normal human thyrocytes (Line 636); experiment: Transfection of normal human thyrocytes (Line 636) with 16/pEGFP-N1 complexes; GFP expression and survival; settings: 16/pEGFP-N1 (5 μg)
[2] = system: transformed human kidney cells (Line 293); experiment: Transfection of transformed human kidney cells (Line 293) with 16/pEGFP-N1 complexes; GFP expression and survival; settings: 16/pEGFP-N1 (5 μg)
[3] = system: cell line PC3 (human androgen-independent prostate carcinoma); experiment: Transfection of PC3 cells with plasmid pEGFP-N1; GFP expression by cytofluorimetry 48 h later, and survival; settings: for capable of giving a significant percentage of living cells expressing the GFP protein (in words) / toxicity / cell mortality with respect to 16, 22 and 17 (in words): 5 μg pEGFP-N1
Procedure: The plasmid vector PEGFP-N1 (BD Biosciences), containing the gene encoding green fluorescent protein (GFP) has been used in the transfection tests. Due to its properties, GFP is a useful tool for monitoring “passive” gene expression: indeed, fluorescent detection in this particular system is performed by means of cytofluorimetry or by microscopy.
Transfection tests have been performed on the cell line PC3 (human androgen-independent prostate carcinoma) with the plasmid PEGFP-N1 used in quantities equal to 2.5 and 5 μg. The general experimental outline envisaged 4 hours of transfection in reduced-serum culture medium, and in the absence of antibiotics. Upon completion of transfection, the culture medium has been replaced with normal growth medium and the evaluation of GFP expression has been performed 48 hours later by means of cytofluorimetry.

[4] = CR = 6, percentage with respect to control, preliminary data
[5] = 2.5 μg pEGFP-N1, 16 and 17 at CR = 6.0, commercial agents per manufacturer, at least 3 independent experiments (Table 3)
[6] = 2.5 μg pEGFP-N1, 16 and 17 at CR = 6.0, commercial agents per manufacturer, mean percentage with respect to control, at least 3 independent experiments (Table 3)
[7] = 2.5 μg pEGFP-N1, charge ratio CR = 1.5
[8] = 2.5 μg pEGFP-N1, charge ratio CR = 3.0
[9] = 2.5 μg pEGFP-N1, charge ratio CR = 6.0 (Table 1)
[10] = 5 μg pEGFP-N1, 16 and 17 at CR = 6.0, commercial agents per manufacturer, at least 3 independent experiments (Table 3)
[11] = 5 μg pEGFP-N1, 16 and 17 at CR = 6.0, commercial agents per manufacturer, mean percentage with respect to control, at least 3 independent experiments (Table 3)
[12] = 5 μg pEGFP-N1, charge ratio CR = 1.5
[13] = 5 μg pEGFP-N1, charge ratio CR = 3.0
[14] = 5 μg pEGFP-N1, charge ratio CR = 6.0 (Table 1)
[15] = 5 μg pEGFP-N1, constant charge ratio CR = 6 (Table 2)
[16] = 5 μg pEGFP-N1, constant charge ratio CR = 6, percentage with respect to control (Table 2)

## CCCCCCCCCCCCCCNc1nc(NCCS)nc(NCCCN)n1 [Compound 16]
[1]; [4]
  Survival: 75.3%
[1]; CR = 6, preliminary data
  GFP+ living cells: 34.3%
  Total GFP+ cells: 53.8%
[2]; [4]
  Survival: 86.8%
[2]; CR = 6, preliminary data
  GFP+ living cells: 58.3%
  Total GFP+ cells: 76.2%
[3]; [5]
  GFP+ living cells: 20.5%
  Total GFP+ cells: 25.4%
[3]; [6]
  Survival: 81.0%
[3]; [7]
  GFP+ living cells: 1.18%
  Total GFP+ cells: 4.75%
[3]; 2.5 μg pEGFP-N1, charge ratio CR = 1.5, percentage with respect to control
  Survival: 71.4%
[3]; [8]
  GFP+ living cells: 4.05%
  Total GFP+ cells: 7.81%
[3]; 2.5 μg pEGFP-N1, charge ratio CR = 3.0, percentage with respect to control
  Survival: 79.8%
[3]; [9]
  GFP+ living cells: 32.40%
  Total GFP+ cells: 46.13%
[3]; 2.5 μg pEGFP-N1, charge ratio CR = 6.0, percentage with respect to control (Table 1)
  Survival: 86.3%
[3]; [10]
  GFP+ living cells: 41.14%
  Total GFP+ cells: 57%
[3]; [11]
  Survival: 58.0%
[3]; [12]
  GFP+ living cells: 1.54%
  Total GFP+ cells: 1.85%
[3]; 5 μg pEGFP-N1, charge ratio CR = 1.5, percentage with respect to control
  Survival: 100%
[3]; [13]
  GFP+ living cells: 10.6%
  Total GFP+ cells: 12.45%
[3]; 5 μg pEGFP-N1, charge ratio CR = 3.0, percentage with respect to control
  Survival: 96.0%
[3]; [14]
  GFP+ living cells: 64.6%
  Total GFP+ cells: 70.70%
[3]; 5 μg pEGFP-N1, charge ratio CR = 6.0, percentage with respect to control (Table 1)
  Survival: 64.4%
[3]; 2.5 and 5 μg pEGFP-N1
  cellular toxicity (in words): absence of any significant cellular toxicity
[3]; 2.5 and 5 μg pEGFP-N1, GFP expression 48 hours following transfection
  capacity to induce the transfection of PC3 cells (in words): significant percentage of GFP-positive cells
[3]; equal amounts of plasmid DNA
  transfection efficiency compared with Lipofectamine 2000 (in words): comparable to that of Lipofectamine 2000 only in the presence of higher quantities of plasmid DNA

## NCCCNc1nc(NCCS)nc(NCc2ccccc2)n1 [Compound 20]
[3]
  capable of giving a significant percentage of living cells expressing the GFP protein (in words): none
  toxicity / cell mortality with respect to 16, 22 and 17 (in words): did not show excessive levels of toxicity
[3]; [15]
  GFP+ living cells: 0.01%
  Total GFP+ cells: 0.9%
[3]; [16]
  Survival: 74.0%

## CCCCCCNc1nc(NCCS)nc(NCCCN)n1 [Compound 21]
[3]
  capable of giving a significant percentage of living cells expressing the GFP protein (in words): none
  toxicity / cell mortality with respect to 16, 22 and 17 (in words): significantly greater cell mortality
[3]; [15]
  GFP+ living cells: 0.3%
  Total GFP+ cells: 2.1%
[3]; [16]
  Survival: 12.8%

## CCCCCCCC/C=C\CCCCCCCC(=O)OCC(C[N+](C)(C)C)OC(=O)CCCCCCC/C=C\CCCCCCCC.[Cl-] (centres unmarked) [DOTAP, reference compound]
[3]; [5]
  GFP+ living cells: 12.0%
  Total GFP+ cells: 15.8%
[3]; [6]
  Survival: 78.6%
[3]; [10]
  GFP+ living cells: 21.3%
  Total GFP+ cells: 23.5%
[3]; [11]
  Survival: 65.8%
[3]; both quantities of plasmid DNA
  percentage of transfection with respect to compounds 16 and 17 (in words): lower percentage of transfection
  toxicity with respect to compounds 16 and 17 (in words): less toxic

## CCCCCCCCCCCCCCNc1nc(NCCS)nc(N2CCNCC2)n1 [Compound 18, 2-[4-(2-N-piperazinyl)-6-tetradecylamino-[1,3,5]triazin-2-ylamino]-ethanethiol]
[3]
  capable of giving a significant percentage of living cells expressing the GFP protein (in words): none
  toxicity / cell mortality with respect to 16, 22 and 17 (in words): significantly greater cell mortality
[3]; [15]
  GFP+ living cells: 8.4%
  Total GFP+ cells: 56.2%
[3]; [16]
  Survival: 6.3%
